# According to patent publication US9718835B2 (China Medical University Hospital, priority 2013, dated 2017):
# How the values were obtained:
# [1] = tested on: DU-145 (hormone-insensitive prostate cancer); experiment: Sulforhodamine B cytotoxicity assay, DU-145; assay type: cell-based, human; settings: Table 1; 72 h; average ± SD
# Experimental: The 12 novel 1-derivatives 9a-l were evaluated for in vitro antiproliferative activity against four human tumor cell lines, KB (nasopharyngeal), A-549 (lung), DU-145 (prostate), and KBvin (MDR KB subline), by using a sulforhodamine B colorimetric assay with triplicate experiments.^30 Compounds 1 and 3 were used as controls.
# (§1) The human tumor cell lines used in this manuscript were A-549 (lung carcinoma), MDA-MB-231 (triple-negative breast cancer), DU-145 (hormone-insensitive prostate cancer), KB (originally isolated from epidermoid carcinoma of the nasopharynx), KBvin (vincristine-resistant KB subline), and HCT116 (colorectal adenocarcinoma). These cell lines were obtained from the Lineberger Comprehensive Cancer Center (UNC-CH) or from ATCC (Manassas, Va.), except KBvin, which was a generous gift of Professor Y.-C. Cheng (Yale University). All cell lines were maintained and assayed in RPMI-1640 medium containing 2 mM L-glutamine and 25 mM HEPES (HyClone), supplemented with 10% heat-inactivated fetal bovine serum (HyClone), 100 μg/mL streptomycin, 100 IU/mL penicillin, and 0.25 μg/mL amphotericin B (Cellgro) in a humidified atmosphere containing 5% CO2 in air. Compound stock solutions were prepared at 10 mM in DMSO and diluted with culture medium with the final DMSO concentration ≦0.01% (v/v), a concentration without effect on cell growth. The 4-6×10^3 cells/well were cultured for 72 h with various concentrations of test compounds in 96-well plate at 37° C. […] Each assay was performed in triplicate with duplicated samples.
# A-549 (lung carcinoma) = experiment: Sulforhodamine B cytotoxicity assay, A-549; assay type: cell-based, human; settings: Table 1; 72 h; average ± SD
# From the text: as §1, with “Compound stock solutions were prepared at 10 mM in DMSO and diluted with culture medium with the final DMSO concentration ≦0.01% (v/v), a concentration without effect on cell growth.” left out
# A-549 cells = experiment: Cell cycle analysis by flow cytometry; assay type: cell-based, human; settings: A-549, 24 h treatment
# From the text: First, we determined the effect of 9a on cell cycle distribution using flow cytometry analysis. […] Because it has been shown that 1-Topo I-DNA covalent complexes enhance the transcription-dependent degradation of Topo I via a 26S proteasome pathway,^32 the effects of 9a on the expression levels of Topo I and Topo II were investigated. […] Compound 9a acts directly on Topo I and results in the accumulation of covalent Topo I-DNA complexes followed by proteasomal Topo I degradation, which is the same effect as 1 and contributes to 9a's cytotoxicity.
# A-549 cells were fixed with ice-cold 70% EtOH followed by propidium iodide staining Samples were analyzed by a flow cytometer for cell cycle determination. Population of each cell cycle phase was calculated based on the ploidy (<2N as sub-G1; 2N as G1; between 2N and 4N as S; 4N as G2/M), and evaluated statistically by Student's t-test (P<0.01).
# [2] = assay type: in vivo, BALB/c mice
# Experimental: Acute toxicity of 9a in mouse was evaluated pathologically. Sixty 8-week-old male BALB/c mice were randomized into six groups (n=10) to receive 0 (vehicle only), 30, 100, 200, or 300 mg/kg of 9a i.p. on day zero. One group was kept without treatment as a normal control. […] Histopathological evaluations included 1) glycogen deposition, inflammatory cell infiltration, and focal necrosis in liver, 2) regeneration of renal tubule, inflammatory cell infiltration, and chronic progressive nephropathy in kidney, and 3) inflammatory cell infiltration and adenoma in lung. […] Thus, the animals apparently tolerated treatment with 300 mg/kg of 9a, portending an acceptable safety profile.
# Sixty 8-week-old male BALB/c mice (National Laboratory Animal Center, Taipei, Taiwan) were used to evaluate single-dose toxicity. Mice were randomly divided into six groups (n=10) and received a single i.p. injection of 9a at 0 (vehicle), 30, 100, 200 or 300 mg/kg on day 0. One group was untreated as normal control. Body weight was measured every three days for fifteen days. On the end of experimental period, all animals were euthanized by CO2 and tissues from liver, lung, kidney and spleen were weighted (data not shown). Tissues were fixed with 10% formalin and embedded in paraffin. Sections 3-5 μm in thickness were prepared for histopathological examination. Hematoxylin and eosin (H&E) stained paraffin sections were evaluated histopathologically according to the guideline described by Shackelford et al.^36 and graded the symptomatic lesions. […] Statistically significant results (P<0.05) were is shown. This study was approved by the Institutional Animal Care and Use Committee (IACUC) of China Medical University (Taichung, Taiwan), and was performed according to the institutional guidelines.
structure (smiles),measurement,setting,value
CC[C@@]1(OC(=O)CNC(Cc2ccc(OC)cc2)=NS(=O)(=O)c2ccc(C)cc2)C(=O)OCc2c1cc1n(c2=O)Cc2cc3ccccc3nc2-1 [Compound 9a],IC50,[1],50 ± 3.8 nM
same,IC50,A-549 (lung carcinoma),31 ± 3.5 nM
same,cell cycle distribution,A-549 cells,increased cell populations in S and sub-G1 phases
same,overt toxicity,[2]; 300 mg/kg i.p.,no overt toxicity
same,"acute toxicity (anaphylactic, allergic responses, body weight loss)","[2]; single i.p. 30, 100, 200 or 300 mg/kg, male BALB/c mice","no anaphylactic responses, allergic reactions, or significant body weight loss"
same,"histopathological evaluation of liver, spleen, kidney and lung","[2]; single i.p. up to 300 mg/kg, male BALB/c mice",no adverse effects
